# Experimental data: patent US6433220B1 (RPC Inc., priority 1998, dated 2002)
# Read-outs that look alike come from different tables or passages of the source.
# What was measured:
# [1] = cited from earlier work; for EN (normalized solvent polarity parameter): water and tetramethylsilane as extreme reference solvents; for ET (solvent polarity parameter): solvatochromic absorption of betaine dye
# [2] = cited from earlier work
# [3] = Solubility of cobalt ion in the combination solvent; type: physicochemical; conditions: cyclohexanone/water combination solvent
# Description: The above profound and unexpected attributes (considerable increase of dibasic acid solubility combined with considerable decrease of cobalt ion solubility in the novel combination solvent) are primarily responsible for a clean extraction of the cobalt ion with water from the rest of the reaction mixture, which remains dissolved in the combination solvent of the instant invention.
compound,measurement,setting,value
CCO [Ethanol],EN (normalized solvent polarity parameter),[1],0.654
C1CCCCC1 [Cyclohexane],EN (normalized solvent polarity parameter),[1],0.006
c1ccc(Oc2ccccc2)cc1 [diphenyl ether],ET (solvent polarity parameter),[1],35.3 kcal/mol
O=C1CCCCC1 [Cyclohexanone],mol % CHxO (solubility of cyclohexanone in water),[2]; 20 °C,1.98% mol %
same,wt % CHxO (solubility of cyclohexanone in water),[2]; 20 °C,10.00% wt %
same,mol % CHxO (solubility of cyclohexanone in water),[2]; 25 °C,1.85% mol %
same,wt % CHxO (solubility of cyclohexanone in water),[2]; 25 °C,9.39% wt %
same,mol % CHxO (solubility of cyclohexanone in water),[2]; 30 °C,1.73% mol %
same,wt % CHxO (solubility of cyclohexanone in water),[2]; 30 °C,8.83% wt %
same,mol % CHxO (solubility of cyclohexanone in water),[2]; 50 °C,1.43% mol %
same,wt % CHxO (solubility of cyclohexanone in water),[2]; 50 °C,7.39% wt %
same,mol % CHxO (solubility of cyclohexanone in water),[2]; 70 °C,1.34% mol %
same,wt % CHxO (solubility of cyclohexanone in water),[2]; 70 °C,6.95% wt %
same,mol % CHxO (solubility of cyclohexanone in water),[2]; 90 °C,1.44% mol %
same,wt % CHxO (solubility of cyclohexanone in water),[2]; 90 °C,7.44% wt %
same,EN (normalized solvent polarity parameter),[1],0.281
OC1CCCCC1 [Cyclohexanol],EN (normalized solvent polarity parameter),[1],0.500
cobalt ion,solubility of the cobalt ion in the novel combination solvent,[3],decreases considerably
CO [Methanol],EN (normalized solvent polarity parameter),[1],0.762
CC(=O)O [Acetic acid],EN (normalized solvent polarity parameter),[1],0.648
O [Water],ET (solvent polarity parameter),[1],63.1 kcal/mol
same,EN (normalized solvent polarity parameter),[1],1.000
CCCCCC [n-Hexane],EN (normalized solvent polarity parameter),[1],0.009
